Experiments:
P. aeruginosa PPK2A = biological target: T1, P. aeruginosa PPK2A (Pseudomonas aeruginosa, UniProt Q9I6Z1); assay: PPK2A ADP phosphorylation by polyP (ATP synthesis), toluidine blue detection; format: biochemical; conditions: ATP synthesis from ADP and polyP; 275 nM enzyme; read-out: IC50 PPK2A
T1 construct: residues P9 to P289; MBP (N, cleaved yes); His tag (N, cleaved yes); made in house; host or cells: E. coli BL21(DE3)
Method: (§1) All IC50 and kinetic assay mixtures contained equimolar amounts (275 nM) of PPK to ensure valid comparison between different enzymes. PolyP synthesis activity (for PPK1 and PPK2B) was assayed using the reaction buffer and conditions described above. ATP concentration was varied as indicated for kinetic experiments. Curves were fit using GraphPad Prism V9.
(§2) Nucleotide phosphorylation activity of PPK2 enzymes was assayed in buffer containing 50 mM Tris-HCl, pH 7.5, 10 mM (NH4)2SO4, 10 mM MgCl2, 5 mM polyP45 (Sigma; in terms of individual Pi monomers), and nucleotide (ADP or AMP) at 5 mM for IC50 reactions or as indicated for kinetic experiments. Enzyme was added to a final concentration of 275 nM in 100-μl reaction volumes. One-hundred-microliter reaction mixtures were incubated at 37°C for 30 min, and then 5-μl aliquots were withdrawn and added to 1,000 μl of 6-mg/liter toluidine blue dissolved in 40 mM acetic acid to quench the reaction and quantify the polyP that remained. The A630/530 nm ratio was then recorded, and the values obtained were corrected by subtracting the corresponding blanks (all ingredients except enzyme). The amount of polyP consumed was calculated by subtracting the amount present after reaction from that present in the initial reaction mix, as calculated via a standard curve. Each monomer of Pi consumed from polyP equates to one nucleoside phosphorylated. Curves were fit using GraphPad Prism V9.

P. aeruginosa PPK2C = biological target: T2, P. aeruginosa PPK2C (Pseudomonas aeruginosa, UniProt Q9HYF1); assay: PPK2C AMP phosphorylation by polyP (ADP synthesis), toluidine blue detection; format: biochemical; conditions: ADP synthesis from AMP and polyP; 275 nM enzyme; read-out: IC50 PPK2C
T2 construct: MBP (N, cleaved yes); His tag (N, cleaved yes); made in house; host or cells: E. coli BL21(DE3)
Method: as §1, §2

P. aeruginosa PA14 [1] = assay: Biofilm assay, crystal violet staining; format: cell-based, Pseudomonas aeruginosa
Method: P. aeruginosa biofilms were quantified as described previously ([54]). Briefly, M63 medium supplemented with 1 mM MgSO4 and 0.4% arginine as the sole carbon source was colony inoculated with PA14. Biofilms were allowed to form in 96-well tissue culture plates (U-bottom; Sarstedt) at 37°C for 16 h. Wells were washed twice with sterile water. Biofilm rings were stained with 0.1% crystal violet, washed twice with water, and then solubilized in 30% acetic acid to record absorbance at 570 nm.

P. aeruginosa PA14 [2] = assay: Swimming motility assay; format: cell-based, Pseudomonas aeruginosa
Method: Swimming motility plates consisted of 0.3% (wt/vol) Bacto agar (Becton Dickinson) and 2.5% (wt/vol) LB (Miller; Bioshop). Where indicated, 100 μM compound or an equivalent volume of DMSO was added to the agar prior to pouring. Plates were stab inoculated with a pipette tip dipped in overnight LB culture. Plates were incubated in sealed Tupperware at 30°C for 18 h, and swimming diameter was imaged and measured electronically.

P. aeruginosa [3] = assay: C. elegans liquid killing (LK) infection assay; format: in vivo, Caenorhabditis elegans; conditions: 100 μM gallein
Method: (§3) Wild-type N2 C. elegans and the glp-4 conditionally sterile mutant strain were obtained from the Caenorhabditis Genetics Center. Liquid killing assays were conducted using glp-4 mutant worms as described previously ([35]), with the exception of survival being scored manually under a Zeiss light microscope instead of via Sytox Orange staining. Nematodes were scored as dead when they no longer moved when tapped. Solid killing was conducted using glp-4 as described previously ([34]), with the indicated concentration of inhibitor impregnated into the SK agar. Bacterial CFU accumulation in WT N2 worms was quantified as described previously ([56]). Briefly, age-synchronized embryos were spotted onto bacterium-seeded nematode growth medium (NGM) agar plates impregnated with inhibitor or DMSO. Embryos were incubated at 25°C for 3 days, after which point adult worms were harvested, washed, lysed, and enumerated for CFU.

P. aeruginosa [4] = assay: C. elegans solid-phase slow killing (SK) infection assay; format: in vivo, Caenorhabditis elegans; conditions: 100 μM gallein
Method: as §3

P. aeruginosa [5] = assay: Antibiotic synergy in the C. elegans LK model; format: in vivo, Caenorhabditis elegans; conditions: for protection of C. elegans in combination with antibiotic: LK assay
Method: Assessment of antibiotic synergy in the C. elegans model was adapted from previously described protocols ([25]). Briefly, glp-4 C. elegans worms were incubated at 25°C with P. aeruginosa and the indicated amount of gallein or DMSO in LK medium as described above. After 24 h, antibiotics were added. After another 24 h, C. elegans survival was scored as described above.

HEK293T cells = assay: HEK293T cytotoxicity assay, trypan blue; format: cell-based, human; conditions: concentrations up to 100 μM, 48 h incubation
Method: HEK293 cells were grown in Dulbecco’s modified Eagle’s medium supplemented with 10% fetal bovine serum at 5% CO2 and 37°C. Cells were grown until a confluent monolayer was formed in 12-well culture plates, at which point inhibitors or DMSO was added. After 48-h incubation, cells were detached with trypsin and percent viability was scored via a hemocytometer and trypan blue staining.

[6] = set-up: method as in PMID 29084601, PMID 24703913, PMID 30024944; conditions: rats, 5 to 10 mg/kg of body weight daily for up to 8 weeks; cited from earlier work
[7] = WT: DMSO control vs 100 µM gallein
[8] = Δppk1, 2a, 2b, 2c: DMSO control vs 100 µM gallein
[9] = Δppk1: DMSO control vs 100 µM gallein
[10] = Δppk2a, 2b, 2c: DMSO control vs 100 µM gallein

T1 sequence (Q9I6Z1 68-348): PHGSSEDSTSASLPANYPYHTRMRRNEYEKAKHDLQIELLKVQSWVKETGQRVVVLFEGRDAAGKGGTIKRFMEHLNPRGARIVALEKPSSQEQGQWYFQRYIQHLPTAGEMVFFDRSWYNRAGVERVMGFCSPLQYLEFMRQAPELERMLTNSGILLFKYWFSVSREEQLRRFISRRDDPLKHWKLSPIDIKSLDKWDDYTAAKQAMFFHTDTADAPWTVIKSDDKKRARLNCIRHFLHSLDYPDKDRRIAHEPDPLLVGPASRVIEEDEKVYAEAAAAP
T2 sequence (Q9HYF1 whole entry): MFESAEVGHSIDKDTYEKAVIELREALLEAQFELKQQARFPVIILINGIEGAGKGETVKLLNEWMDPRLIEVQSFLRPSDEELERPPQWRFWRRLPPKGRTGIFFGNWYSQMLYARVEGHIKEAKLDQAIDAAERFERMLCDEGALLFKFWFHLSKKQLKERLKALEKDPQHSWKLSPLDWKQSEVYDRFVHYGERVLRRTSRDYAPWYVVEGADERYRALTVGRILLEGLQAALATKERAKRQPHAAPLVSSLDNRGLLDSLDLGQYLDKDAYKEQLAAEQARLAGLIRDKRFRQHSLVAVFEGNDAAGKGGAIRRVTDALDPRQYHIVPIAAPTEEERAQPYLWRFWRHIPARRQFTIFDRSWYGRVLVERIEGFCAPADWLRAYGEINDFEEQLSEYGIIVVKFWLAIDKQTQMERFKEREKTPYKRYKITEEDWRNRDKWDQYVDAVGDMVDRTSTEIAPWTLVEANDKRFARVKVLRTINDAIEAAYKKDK

For `O=C1OC2(c3ccccc31)c1ccc(O)c(O)c1Oc1c2ccc(O)c1O` [RT4 (gallein), gallein], the IC50 (P. aeruginosa PPK2A) was 16 ± 3 µM, the IC50 (P. aeruginosa PPK2C) was 165 ± 5 µM and the “Biofilm formation, Mean Diff.” value (P. aeruginosa PA14 [1]; [7]) was 0.1666. For the same compound, the biofilm formation (P. aeruginosa PA14 [1]; WT, reduction dose dependent) was “reduced biofilm formation”, the biofilm formation (P. aeruginosa PA14 [1]; ΔpolyP strain) was “no significant effect” and the “Biofilm formation, Mean Diff.” value (P. aeruginosa PA14 [1]; [8]) was 0.005375. The “Biofilm formation, Mean Diff.” value (P. aeruginosa PA14 [1]; [9]) was 0.08825, the biofilm formation (P. aeruginosa PA14 [1]; Δppk1 strain) was “further decreased biofilm formation” and the “Biofilm formation, Mean Diff.” value (P. aeruginosa PA14 [1]; [10]) was 0.08488. For the same compound, the biofilm formation (P. aeruginosa PA14 [1]; Δppk2 strain) was “further decreased biofilm formation”, the flagellum-based swimming motility (P. aeruginosa PA14 [2]; WT, 100 μM in agar) was “faithfully reproduced in WT P. aeruginosa the defect in flagellum-based swimming motility observed in the ΔpolyP strain” and the “swimming motility, Mean Diff.” value (P. aeruginosa PA14 [2]; [7]) was 2. The “swimming motility, Mean Diff.” value (P. aeruginosa PA14 [2]; [8]) was -0.1, the “swimming motility, Mean Diff.” value (P. aeruginosa PA14 [2]; [9]) was 1.05 and the “swimming motility, Mean Diff.” value (P. aeruginosa PA14 [2]; [10]) was 0.65. For the same compound, the C. elegans survival (P. aeruginosa [3]) was “significantly improved survival rates”, the C. elegans survival (P. aeruginosa [4]) was “significantly improved survival rates” and the “C. elegans antibiotic synergy, Mean Diff.” value (P. aeruginosa [5]; Cipro (0.75 µg/mL) DMSO vs Cipro (0.75 µg/mL) + 100 µM gallein) was -47.1. The “protection of C. elegans in combination with antibiotic” value (P. aeruginosa [5]; in combination with ciprofloxacin) was “achieved greater protection of C. elegans than did gallein or antibiotics alone”, the “protection of C. elegans in combination with antibiotic” value (P. aeruginosa [5]; in combination with tetracycline) was “achieved greater protection of C. elegans than did gallein or antibiotics alone” and the “C. elegans antibiotic synergy, Mean Diff.” value (P. aeruginosa [5]; No antibiotic DMSO vs Cipro (0.75 µg/mL) + 100 µM gallein) was -35.08. For the same compound, the “C. elegans antibiotic synergy, Mean Diff.” value (P. aeruginosa [5]; No antibiotic DMSO vs No antibiotic + 100 µM gallein) was -16.19, the “C. elegans antibiotic synergy, Mean Diff.” value (P. aeruginosa [5]; No antibiotic DMSO vs Tet (10 µg/mL) + 100 µM gallein) was -38.97 and the “C. elegans antibiotic synergy, Mean Diff.” value (P. aeruginosa [5]; Tet (10 µg/mL) DMSO vs Tet (10 µg/mL) + 100 µM gallein) was -49.51. For the same compound, the cytotoxicity (HEK293T cells) was “noncytotoxic” and the adverse effects [6] was “no adverse effects”.

Source: paper PMC8262977, “A Dual-Specificity Inhibitor Targets Polyphosphate Kinase 1 and 2 Enzymes To Attenuate Virulence of Pseudomonas aeruginosa” (mBio, 2021)
